We go through one compound from patent US20200016173A1 (CHINA MEDICAL UNIVERSITY, priority 2016, published 2020).

Series [1] deals with gastric cancer. Conditions: fluorouracil chemotherapy, GCa patients; cited from earlier work.
Series [2] concerns human stomach gastric carcinoma (SNU-1) xenograft. As to the kind of experiment: human-tumor xenograft in athymic nude mice. Conditions: I.P., 5-FU 5 mg/kg, Exe 100 mg/kg, 3 times/wk for 4-wks. Format: in vivo. In general terms: A xenograft is tissue or cells of one species grown in another, often human tumour cells in immunodeficient mice.

For `O=c1[nH]cc(F)c(=O)[nH]1` [5-FU, fluorouracil], the “toxicity (patients with other gastrointestinal malignancies)” value in series [1] is recorded as more than 50 % patients. Besides, the tumor growth entry in series [2] is “suppress”.
